Molecules are shown by their SMILES.

Assay [1] has as its system kidneys (hematogenous seeding). Kind of assay: Mouse bacteremia (renal abscess) model. Type of assay: in vivo. The settings on record: expressed in MRSA252 and 22030, versus isogenic strains expressing non-CC30 PSMα3. As to the method: (A) The MRSA252 strain (252, expressing PSMα3N22Y) was compared to a strain (252*) in which the psmα3 gene was changed to express non-CC30 PSMα3 in a mouse model of blood infection. Hematogenous seeding into the kidneys was measured 4 days after infecting mice via the tail vein with 1×10^7 CFU. Results from kidneys with considerable bacterial numbers (>10^3 CFU) are shown in the graph; the number of kidneys with lower or no bacteria is shown at the bottom. Analysis of significance was performed with the numbers obtained from all kidneys; *, p<0.05. Number of mice used per strain: 10. Two counts per analyzed kidney were performed. (B) Experiment as in (A) with strain 22030 expressing PSMα3N22Y and the isogenic 22030* strain expressing PSMα3. Number of mice used per strain: 20; two counts per analyzed kidney are included; inoculum: 1×10^6. *, p<0.05. (C, D) Tubulointerstitial nephritis with large colonies of bacteria (arrows) in kidneys infected with strain 252, magnification 100× (C) and 200× (D). (E) Absence of signs of infection in kidneys infected with strain 252* (magnification 100×).
For the renal abscess model, S. aureus strains were inoculated from a pre-culture and grown to mid-exponential growth phase (∼2 h), harvested, washed, and diluted with sterile PBS. […]

For a further assay, the target named is T1, FPR3 (Homo sapiens, UniProt P25089).
T1 construct: expressed in transfected cells; host or cells: HL60 cells, stably transfected
T1 sequence (P25089 1-353): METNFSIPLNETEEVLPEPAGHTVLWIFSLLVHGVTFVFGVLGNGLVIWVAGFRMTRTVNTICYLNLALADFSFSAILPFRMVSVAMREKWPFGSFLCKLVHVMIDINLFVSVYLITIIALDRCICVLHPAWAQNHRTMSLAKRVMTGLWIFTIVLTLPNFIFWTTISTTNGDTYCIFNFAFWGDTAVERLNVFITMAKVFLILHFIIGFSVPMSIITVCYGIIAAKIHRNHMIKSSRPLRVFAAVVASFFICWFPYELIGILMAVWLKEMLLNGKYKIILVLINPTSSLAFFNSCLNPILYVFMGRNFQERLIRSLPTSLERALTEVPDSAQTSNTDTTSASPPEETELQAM
Kind of assay: Ca2+ flux in HL60 cells stably transfected with FPR3. Type of assay: cell-based. To be noted: one site-binding model from Ca2+ flux, synthetic peptides, three biological and two technical replicates, error = standard deviation. As to the method: Next, we analyzed Ca^2+ flux as a general measure to test for neutrophil activation, as used in previous studies. HL60 cells stably transfected with different FPR receptor genes were used to determine which FPR receptors are differentially activated by PSMα3 versus PSMα3N22Y (Fig. 4A). […] At a peptide concentration of 100 nM, we observed a difference of ∼factor 2 in chemotactic activity comparing the two peptides when FPR1 recognition was inhibited by CHIPS, likely attributable to FPR2-mediated recognition. […]
(A) Differential activation of FPRs by PSMα3 versus PSMα3N22Y was measured using synthetic peptides and Ca^2+ flux observed in HL60 cells stably transfected with the corresponding FPR genes as readout, using three biological and two technical replicates. The calculated Kd values are shown on the right. […]
Human neutrophils were isolated from venous blood of healthy donors as described, [39]. Neutrophil chemotaxis and Ca^2+ flux were determined as previously described, [24]. […] Chemotaxis of neutrophils was determined using a transwell system (Costar) with analysis of neutrophil migration using fluorescence labeling. Calcium fluxes were monitored as a surrogate marker for chemotaxis since it can be measured more robustly and accurately than chemotaxis. […] Measurements of 2,000 events were performed and Ca^2+ flux was expressed as relative fluorescence corrected for buffer controls. […]

Consider `CSCC[C@H](NC=O)C(=O)N[C@@H](CCC(=O)O)C(=O)N[C@@H](Cc1ccccc1)C(=O)N[C@H](C(=O)N[C@@H](C)C(=O)N[C@@H](CCCCN)C(=O)N[C@@H](CC(C)C)C(=O)N[C@@H](Cc1ccccc1)C(=O)N[C@@H](CCCCN)C(=O)N[C@@H](Cc1ccccc1)C(=O)N[C@@H](Cc1ccccc1)C(=O)N[C@@H](CCCCN)C(=O)N[C@@H](CC(=O)O)C(=O)N[C@@H](CC(C)C)C(=O)N[C@@H](CC(C)C)C(=O)NCC(=O)N[C@@H](CCCCN)C(=O)N[C@@H](Cc1ccccc1)C(=O)N[C@@H](CC(C)C)C(=O)NCC(=O)N[C@@H](CC(N)=O)C(=O)N[C@@H](Cc1ccc(O)cc1)C(=O)O)C(C)C` [PSMα3N22Y], for which, in assay [1], the “Capacity to cause sepsis and subsequent complications” value is “increased capacity to cause sepsis and subsequent complications”. The compound further showed a Kd on FPR3 of 953 ± 254 nM.

The record behind these values is publication PMC4140855, “Production of an Attenuated Phenol-Soluble Modulin Variant Unique to the MRSA Clonal Complex 30 Increases Severity of Bloodstream Infection” (PLoS Pathogens, 2014).
